Earlier results as cited in patent EP1368044B1, “IMMUNOMODULATOR FOR THE MANAGEMENT OF HUMAN IMMUNODEFICIENCY VIRUS (HIV) DISEASE/INFECTION” (Bakulesh, Mafatlal Khamar, priority 2002, dated 2002).
Ends that are not written are not given here.

System: HIV
Conditions: along with interleukin-2

For “Thymosin α1: a 28-aminoacid peptide (SDAAVDTSSEITTKDLKEKKEVVEEAEN; ends and bridges not checked; UniProt P06454 2-29, looked up)”, the “efficacy to improve CD4” value is listed as “no significant effect”.
